# Experimental data published in patent US10526309B2, “Pan-TAM inhibitors and Mer/Axl dual inhibitors” (The University of North Carolina at Chapel Hill, priority 2015, dated 2020).
# pIC50: −log10 of the molar value. Like-named read-outs stand apart in the source and are kept apart here.
# Assays:
# Format in all cases: biochemical
# Mer = biological target: T1, Mer (Homo sapiens, UniProt Q12866); assay: Mer kinase inhibition IC50; conditions: read-out: Mer IC50
# T1 sequence (Q12866 21-999): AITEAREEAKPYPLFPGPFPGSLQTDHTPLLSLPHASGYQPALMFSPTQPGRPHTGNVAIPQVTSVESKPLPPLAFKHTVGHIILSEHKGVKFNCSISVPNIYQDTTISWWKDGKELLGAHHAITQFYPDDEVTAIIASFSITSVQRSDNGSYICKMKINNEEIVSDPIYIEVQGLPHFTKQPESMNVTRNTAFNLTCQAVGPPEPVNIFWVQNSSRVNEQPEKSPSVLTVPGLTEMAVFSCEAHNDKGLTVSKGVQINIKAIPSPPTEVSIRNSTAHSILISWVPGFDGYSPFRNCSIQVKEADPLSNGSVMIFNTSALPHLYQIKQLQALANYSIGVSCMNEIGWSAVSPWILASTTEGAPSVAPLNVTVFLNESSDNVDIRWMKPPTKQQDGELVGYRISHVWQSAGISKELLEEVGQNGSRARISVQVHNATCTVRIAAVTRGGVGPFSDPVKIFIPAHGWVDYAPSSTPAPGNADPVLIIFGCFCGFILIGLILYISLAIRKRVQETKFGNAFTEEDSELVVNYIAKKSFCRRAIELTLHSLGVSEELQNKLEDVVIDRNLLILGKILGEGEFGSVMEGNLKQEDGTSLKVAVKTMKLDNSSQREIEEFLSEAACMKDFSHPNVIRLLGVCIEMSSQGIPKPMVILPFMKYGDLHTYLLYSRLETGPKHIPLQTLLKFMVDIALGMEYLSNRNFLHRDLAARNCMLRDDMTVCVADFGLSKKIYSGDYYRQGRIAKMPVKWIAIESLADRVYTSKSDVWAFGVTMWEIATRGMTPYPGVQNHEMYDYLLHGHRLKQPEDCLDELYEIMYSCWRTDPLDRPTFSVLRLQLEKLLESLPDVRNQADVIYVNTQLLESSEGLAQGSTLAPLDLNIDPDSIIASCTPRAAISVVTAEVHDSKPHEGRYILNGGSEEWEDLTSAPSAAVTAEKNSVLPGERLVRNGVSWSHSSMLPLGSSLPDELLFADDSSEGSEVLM
# Axl = biological target: T2, Axl (Homo sapiens, UniProt P30530); assay: Axl kinase inhibition IC50
# T2 sequence (P30530 26-894): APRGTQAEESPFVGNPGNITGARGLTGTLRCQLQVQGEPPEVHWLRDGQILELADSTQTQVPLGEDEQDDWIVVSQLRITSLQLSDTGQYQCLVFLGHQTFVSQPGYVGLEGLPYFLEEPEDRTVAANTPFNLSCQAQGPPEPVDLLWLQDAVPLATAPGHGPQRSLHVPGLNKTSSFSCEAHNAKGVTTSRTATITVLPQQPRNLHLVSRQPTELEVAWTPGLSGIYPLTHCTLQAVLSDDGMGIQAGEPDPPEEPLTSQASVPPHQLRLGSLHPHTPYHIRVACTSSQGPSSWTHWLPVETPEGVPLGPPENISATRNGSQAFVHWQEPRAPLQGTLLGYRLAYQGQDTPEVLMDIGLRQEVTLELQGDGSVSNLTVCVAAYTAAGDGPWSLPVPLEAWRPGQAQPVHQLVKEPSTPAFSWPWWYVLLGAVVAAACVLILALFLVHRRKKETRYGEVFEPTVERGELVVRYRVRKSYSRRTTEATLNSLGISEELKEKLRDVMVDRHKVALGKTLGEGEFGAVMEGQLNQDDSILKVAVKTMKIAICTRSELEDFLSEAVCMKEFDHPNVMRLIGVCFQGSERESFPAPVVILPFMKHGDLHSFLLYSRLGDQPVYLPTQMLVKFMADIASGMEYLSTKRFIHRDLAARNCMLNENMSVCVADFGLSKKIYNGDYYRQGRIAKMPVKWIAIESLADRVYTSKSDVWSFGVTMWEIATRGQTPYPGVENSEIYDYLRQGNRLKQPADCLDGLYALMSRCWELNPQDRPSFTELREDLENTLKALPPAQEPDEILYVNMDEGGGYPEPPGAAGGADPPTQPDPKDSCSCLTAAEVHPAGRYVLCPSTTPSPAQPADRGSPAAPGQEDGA
# Tyro3 = biological target: T3, Tyro3 (Homo sapiens, UniProt Q06418); assay: Tyro3 kinase inhibition IC50
# T3 sequence (Q06418 41-890): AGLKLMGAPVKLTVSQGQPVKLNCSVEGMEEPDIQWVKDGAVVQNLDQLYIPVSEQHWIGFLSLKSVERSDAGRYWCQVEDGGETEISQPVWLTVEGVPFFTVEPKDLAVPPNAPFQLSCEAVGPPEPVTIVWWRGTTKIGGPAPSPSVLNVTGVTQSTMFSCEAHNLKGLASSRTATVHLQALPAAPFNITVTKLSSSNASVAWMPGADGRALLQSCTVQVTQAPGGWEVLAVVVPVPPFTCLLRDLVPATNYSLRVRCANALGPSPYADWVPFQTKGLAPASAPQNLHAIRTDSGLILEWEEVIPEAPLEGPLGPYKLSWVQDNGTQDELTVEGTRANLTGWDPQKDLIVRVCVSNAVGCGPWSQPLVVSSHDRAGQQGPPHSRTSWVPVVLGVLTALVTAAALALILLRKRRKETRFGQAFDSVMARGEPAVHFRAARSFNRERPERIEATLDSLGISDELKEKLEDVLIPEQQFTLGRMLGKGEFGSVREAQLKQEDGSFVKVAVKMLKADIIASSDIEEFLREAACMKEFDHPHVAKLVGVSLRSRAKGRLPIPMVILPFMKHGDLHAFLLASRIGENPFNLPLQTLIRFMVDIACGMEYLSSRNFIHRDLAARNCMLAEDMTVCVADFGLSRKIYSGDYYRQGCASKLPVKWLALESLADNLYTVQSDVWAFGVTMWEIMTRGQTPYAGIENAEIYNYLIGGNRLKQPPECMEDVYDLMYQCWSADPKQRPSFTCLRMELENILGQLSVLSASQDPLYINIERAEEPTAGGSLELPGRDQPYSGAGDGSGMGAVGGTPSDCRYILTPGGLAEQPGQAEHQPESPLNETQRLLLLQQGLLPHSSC
SMILES,pIC50 (Mer; Table 2),pIC50 (Axl; Table 2),"pIC50 (Tyro3; Table 2, read-out: Tyro3 IC50)",pIC50 (Mer; Table 3),pIC50 (Axl; Table 3),"pIC50 (Tyro3; Table 3, read-out: Tyro3 IC50)",further results
CN1CCC(N2CCC(c3ccc(Nc4ncc(-c5ccccn5)c(N[C@H]5CC[C@H](O)CC5)n4)cc3)CC2)CC1 [UNC5072A],7.00 to 8.00,6.00 to 7.00,6.00 to 7.00,–,–,–,–
CN1CCC(c2ccc(Nc3ncc(-c4ccccn4)c(NC4CCOCC4)n3)cc2)CC1 [UNC5134A],6.00 to 7.00,4.52 to 6.00,6.00 to 7.00,–,–,–,–
O[C@H]1CC[C@H](Nc2nc(Nc3ccc(C#Cc4cc(Nc5ncco5)ccn4)cc3)ncc2-c2ccccn2)CC1 [UNC4392A],–,–,–,–,–,–,"pIC50 (Mer; Table 4): 6.00 to 7.00; pIC50 (Axl; Table 4): 4.52 to 6.00; pIC50 (Tyro3; Table 4, read-out: Tryo3 IC50): 6.00 to 7.00"
O[C@H]1CC[C@H](Nc2nc(Nc3ccc(C4=CCOCC4)cc3)ncc2-c2ccccn2)CC1 [UNC4434A],7.00 to 8.00,6.00 to 7.00,6.00 to 7.00,–,–,–,–
O[C@H]1CC[C@H](Nc2nc(Nc3ccc(C#Cc4cc(-c5cccnc5)ccn4)cc3)ncc2-c2ccccn2)CC1 [UNC4361A],–,–,–,–,–,–,"pIC50 (Mer; Table 4): 6.00 to 7.00; pIC50 (Axl; Table 4): 6.00 to 7.00; pIC50 (Tyro3; Table 4, read-out: Tryo3 IC50): 6.00 to 7.00"
CNc1nc(Nc2ccc(C3CCN(C)CC3)cc2)ncc1-c1ccccn1 [UNC5136A],4.52 to 6.00,4.52 to 6.00,4.52 to 6.00,–,–,–,–
O[C@H]1CC[C@H](Nc2nc(Nc3ccc(C4CCCNC4)cc3)ncc2-c2ccccn2)CC1 (stereo partly drawn) [UNC5129A],6.00 to 7.00,6.00 to 7.00,6.00 to 7.00,–,–,–,–
CC(C)N1CCC(=Cc2ccc(-c3cnc(Nc4ccc(F)cc4)nc3N[C@H]3CC[C@H](O)CC3)nc2)CC1 [UNC4397A],–,–,–,–,–,–,"pIC50 (Mer; Table 1): > 8.00; pIC50 (Axl; Table 1): > 8.00; pIC50 (Tyro3; Table 1, read-out: Tyro3 IC50): > 8.00"
CC(C)Nc1ccnc(C#Cc2ccc(Nc3ncc(-c4ccccn4)c(N[C@H]4CC[C@H](O)CC4)n3)cc2)c1 [UNC4364A],–,–,–,–,–,–,"pIC50 (Mer; Table 4): 7.00 to 8.00; pIC50 (Axl; Table 4): 6.00 to 7.00; pIC50 (Tyro3; Table 4, read-out: Tryo3 IC50): 7.00 to 8.00"
CN1CC=C(c2ccc(Nc3ncc(-c4ccccn4)c(N[C@H]4CC[C@H](O)CC4)n3)cc2)CC1 [UNC4431A],6.00 to 7.00,4.52 to 6.00,6.00 to 7.00,–,–,–,–
CN1CCC(c2ccc(Nc3ncc(-c4ccccn4)c(N[C@H]4CC[C@H](O)CC4)n3)cc2)CC1 [UNC5130A],7.00 to 8.00,6.00 to 7.00,6.00 to 7.00,–,–,–,–
CN1CCC(c2ccc(Nc3ncc(-c4ccccn4)c(N[C@H]4CC[C@H](C)CC4)n3)cc2)CC1 [UNC5133A],6.00 to 7.00,4.52 to 6.00,6.00 to 7.00,–,–,–,–

# Second part, led by results:
pIC50 (Mer; Table 2),pIC50 (Axl; Table 2),"pIC50 (Tyro3; Table 2, read-out: Tyro3 IC50)",pIC50 (Mer; Table 3),pIC50 (Axl; Table 3),"pIC50 (Tyro3; Table 3, read-out: Tyro3 IC50)",SMILES,further results
–,–,–,7.00 to 8.00,4.52 to 6.00,6.00 to 7.00,CN1CCN(Cc2ccc(-c3cnc(Nc4ccc(C#Cc5cc(N)ccn5)cc4)nc3N[C@H]3CC[C@H](O)CC3)cc2)CC1 [UNC3869A],–
–,–,–,> 8.00,> 8.00,> 8.00,CN1CCN(Cc2ccc(-c3cnc(Nc4ccc(C#Cc5cc(NC(=O)C6CCCC6)ccn5)cc4)nc3N[C@H]3CC[C@H](O)CC3)cc2)CC1 [UNC3872A],–
–,–,–,7.00 to 8.00,7.00 to 8.00,6.00 to 7.00,NS(=O)(=O)c1ccc(-c2cnc(Nc3ccc(C#Cc4cc(C(=O)NC5CC5)ccn4)cc3)nc2N[C@H]2CC[C@H](O)CC2)nc1 [UNC3457A],–
–,–,–,7.00 to 8.00,6.00 to 7.00,7.00 to 8.00,CC(C)C(=O)Nc1ccnc(C#Cc2ccc(Nc3ncc(-c4ccccc4)c(N[C@H]4CC[C@H](O)CC4)n3)cc2)c1 [UNC4041A],–
–,–,–,> 8.00,6.00 to 7.00,> 8.00,CC(C)C(=O)Nc1ccnc(C#Cc2ccc(Nc3ncc(-c4ccc(CN5CCN(C)CC5)cc4)c(N[C@H]4CC[C@H](O)CC4)n3)c(F)c2)c1 [UNC4040A],–
–,–,–,> 8.00,> 8.00,> 8.00,CN1CCN(Cc2ccc(-c3cnc(Nc4ccc(C#Cc5cc(NC(=O)C6CC6)ccn5)cc4)nc3N[C@H]3CC[C@H](O)CC3)cc2)CC1 [UNC3622A],–
–,–,–,7.00 to 8.00,4.52 to 6.00,> 8.00,CN(C)C(=O)c1ccnc(C#Cc2ccc(Nc3ncc(-c4ccccn4)c(N[C@H]4CC[C@H](O)CC4)n3)cc2)c1 [UNC3459A],–
–,–,–,> 8.00,7.00 to 8.00,> 8.00,CC(C)C(=O)Nc1ccnc(C#Cc2ccc(Nc3ncc(-c4ccncc4)c(N[C@H]4CC[C@H](O)CC4)n3)cc2)c1 [UNC4043A],–
–,–,–,7.00 to 8.00,6.00 to 7.00,7.00 to 8.00,CC(=O)Nc1ccnc(C#Cc2ccc(Nc3ncc(-c4ccc(CN5CCN(C)CC5)cc4)c(N[C@H]4CC[C@H](O)CC4)n3)cc2)c1 [UNC3874A],–
–,–,–,> 8.00,> 8.00,> 8.00,CC(C)C(=O)Nc1ccnc(C#Cc2ccc(Nc3ncc(-c4ccc(CN5CCN(C)CC5)cc4)c(N[C@H]4CC[C@H](O)CC4)n3)cc2Cl)c1 [UNC4047A],–
